Measurements reported in patent publication US11111251B2, “Positive allosteric modulators of the muscarinic acetylcholine receptor M1” (Vanderbilt University, priority 2016, dated 2021).
Like-named read-outs stand apart in the source and are kept apart here.

Biological target: T1, human mAChR M1 (Homo sapiens, UniProt P11229)
T1 sequence (P11229 1-460): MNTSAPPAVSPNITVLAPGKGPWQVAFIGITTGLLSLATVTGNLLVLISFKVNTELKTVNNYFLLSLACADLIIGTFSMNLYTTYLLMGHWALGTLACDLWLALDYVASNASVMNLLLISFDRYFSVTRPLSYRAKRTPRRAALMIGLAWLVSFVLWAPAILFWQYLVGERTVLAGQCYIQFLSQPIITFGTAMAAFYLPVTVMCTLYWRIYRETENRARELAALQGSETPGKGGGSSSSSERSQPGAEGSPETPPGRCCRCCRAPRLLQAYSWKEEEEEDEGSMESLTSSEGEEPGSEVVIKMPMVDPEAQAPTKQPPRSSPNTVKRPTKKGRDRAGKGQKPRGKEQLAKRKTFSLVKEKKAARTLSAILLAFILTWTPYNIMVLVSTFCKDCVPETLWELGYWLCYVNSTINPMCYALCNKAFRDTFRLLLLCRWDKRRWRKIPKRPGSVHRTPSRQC
Experiment: mAChR M1 cell-based functional assay: calcium mobilization, positive allosteric modulator mode (increase in EC20 acetylcholine response)
Details: for Emax: read-out: Human M1 Emax (%)
How it was run: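 PAM potency reflects the concentration-dependent increase in calcium response to an EC20 acetylcholine challenge, given 144 s into a 300 s read after compound addition at 4 s (EC80 follows at 230 s). Cells were hM1-expressing CHO-K1, loaded 50 min with Fluo-4 AM. Curves used 11 points at 1:3 dilutions and four-parameter logistic fitting.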

[1] = Table 2, human M1, read-out: Human M1 EC50
[2] = Table 1, mAChR M1 cell-based functional assay, PAM mode, species not given, read-out: EC50

SMILES	EC50 [1]	Emax (Table 2, human M1)	EC50 [2]	Emax
CC1CC(NC(=O)c2cc(Cc3ccc(-c4cnn(C)c4)nc3)c3sccc3n2)CC(C)O1 (stereo not shown) [Compound 335, N-(2,6-dimethyltetrahydropyran-4-yl)-7-[[6-(1-methylpyrazol-4-yl)-3-pyridyl]methyl]thieno[3,2-b]pyridine-5-carboxamide]	158 nM	83.6%	–	–
Cc1ncc(Cc2cc(C(=O)N[C@@H]3CCCCC[C@H]3O)nc3ccsc23)s1 [Compound 140, N-[(1R,2R)-2-hydroxycycloheptyl]-7-[(2-methylthiazol-5-yl)methyl]thieno[3,2-b]pyridine-5-carboxamide]	306 nM	82.8%	–	–
COCCNC(=O)c1cc(Cc2ccc(-c3nccs3)cc2)c2sccc2n1 [Compound 373, N-(2-methoxyethyl)-7-[(4-thiazol-2-ylphenyl)methyl]thieno[3,2-b]pyridine-5-carboxamide]	1420 nM	79.6%	–	–
Cc1ccc(Cc2cc(C(=O)N[C@H]3CCCNC3)nc3ccsc23)cn1 [Compound 266, 7-[(6-methyl-3-pyridyl)methyl]-N-[(3S)-3-piperidyl]thieno[3,2-b]pyridine-5-carboxamide]	> 10000 nM	59.3%	–	–
Cn1ccc2nc(C(=O)NC3CCOC(C)(C)C3)cc(Cc3ccc(-c4nccs4)cc3)c21 (stereo not shown) [Compound 484, N-(2,2-dimethyltetrahydropyran-4-yl)-1-methyl-7-[(4-thiazol-2-ylphenyl)methyl]pyrrolo[3,2-b]pyridine-5-carboxamide]	704 nM	–	–	47.2%
C[C@@H]1COCC[C@@H]1NC(=O)c1cc(Cc2ccc(-c3cncs3)cc2)c2sccc2n1 [Compound 392, N-[(3S,4S)-3-methyltetrahydropyran-4-yl]-7-[(4-thiazol-5-ylphenyl)methyl]thieno[3,2-b]pyridine-5-carboxamide]	199 nM	65.4%	–	–
CO[C@H]1CCCC[C@@H]1NC(=O)c1cc(Cc2ccc(-c3csc(C)n3)cc2)c2sccc2n1 [Compound 195, N-[(1S,2S)-2-methoxycyclohexyl]-7-[[4-(2-methylthiazol-4-yl)phenyl]methyl]thieno[3,2-b]pyridine-5-carboxamide]	2390 nM	81.8%	–	–
Cc1ccc(Cc2cc(C(=O)NC3CCCCC3)nc3ccsc23)cn1 [Compound 43, N-cyclohexyl-7-[(6-methyl-3-pyridyl)methyl]thieno[3,2-b]pyridine-5-carboxamide]	–	–	1990 nM	–
Cc1nc(-c2ccc(Cc3cc(C(=O)N[C@H]4COCC[C@@H]4O)nc4ccsc34)cc2)cs1 [Compound 193, N-[(3S,4S)-4-hydroxytetrahydropyran-3-yl]-7-[[4-(2-methylthiazol-4-yl)phenyl]methyl]thieno[3,2-b]pyridine-5-carboxamide]	31.1 nM	85.7%	–	–
O=C(N[C@H]1CCOC1)c1cc(Cc2ccc(-c3nccs3)cc2)c2sccc2n1 [Compound 369, N-[(3S)-tetrahydrofuran-3-yl]-7-[(4-thiazol-2-ylphenyl)methyl]thieno[3,2-b]pyridine-5-carboxamide]	2290 nM	59.5%	–	–
Cn1ccc(-c2ccc(Cc3cc(C(=O)NC4CN(C5COC5)C4)nc4ccsc34)cn2)n1 [Compound 425]	5140 nM	65.8%	–	–
Cn1cc(-c2ccc(Oc3cc(C(=O)NC4CCOCC4)nc4ccsc34)c(F)c2)cn1 [Compound 4, 7-[2-fluoro-4-(1-methylpyrazol-4-yl)phenoxy]-N-tetrahydropyran-4-yl-thieno[3,2-b]pyridine-5-carboxamide]	–	–	4990 nM	–
Cn1cc(-c2ccc(Cc3cc(C(=O)N[C@@H]4CC[C@H]4O)nc4ccsc34)c(F)c2)cn1 [Compound 55, 7-[[2-fluoro-4-(1-methylpyrazol-4-yl)phenyl]methyl]-N-[(1R,2R)-2-hydroxycyclobutyl]thieno[3,2-b]pyridine-5-carboxamide]	5700 nM	31.1%	–	–

Further lines, with some results ahead:

EC50 [1]	Emax (Table 2, human M1)	EC50 [2]	SMILES	Emax
386 nM	57%	–	Cn1ccc2nc(C(=O)NC3CC4(COC4)C3)cc(Cc3ccc(-c4nccs4)cc3)c21 [Compound 481, 1-methyl-N-(2-oxaspiro[3.3]heptan-6-yl)-7-[(4-thiazol-2-ylphenyl)methyl]pyrrolo[3,2-b]pyridine-5-carboxamide]	–
176 nM	65.5%	–	Cn1ncc2nc(C(=O)N[C@H]3CCOC[C@@H]3O)cc(Cc3ccc(-c4cscn4)cc3)c21 [Compound 493, N-[(3R,4S)-3-hydroxytetrahydropyran-4-yl]-1-methyl-7-[(4-thiazol-4-ylphenyl)-methyl]pyrazolo[4,3-b]pyridine-5-carboxamide]	–
225 nM	88.3%	–	Cn1cc(-c2ccc(Cc3cc(C(=O)NCC4CCCCO4)nc4ccsc34)cn2)cn1 (stereo not shown) [Compound 340, 7-[[6-(1-methylpyrazol-4-yl)-3-pyridyl]methyl]-N-(tetrahydropyran-2-ylmethyl)thieno[3,2-b]pyridine-5-carboxamide]	–
2280 nM	83.3%	–	CO[C@@H]1CCCC[C@H]1NC(=O)c1cc(Cc2ccc(-n3cccn3)cc2)c2scc(C)c2n1 [Compound 119, N-[(1R,2R)-2-methoxycyclohexyl]-3-methyl-7-[(4-pyrazol-1-ylphenyl)methyl]thieno[3,2-b]pyridine-5-carboxamide]	–
368 nM	45.5%	–	O=C(NCC1CCOCC1)c1cc(Cc2ccc(-c3nccs3)cc2)c2sccc2n1 [Compound 298, N-(tetrahydropyran-4-ylmethyl)-7-[(4-thiazol-2-ylphenyl)methyl]thieno[3,2-b]pyridine-5-carboxamide]	–
> 10000 nM	57.4%	–	Cn1ncc2nc(C(=O)NCC3CCO3)cc(Cc3ccc(-n4cccn4)cc3)c21 (stereo not shown) [Compound 501, 1-methyl-N-(oxetan-2-ylmethyl)-7-[(4-pyrazol-1-ylphenyl)methyl]pyrazolo[4,3-b]-pyridine-5-carboxamide]	–
400 nM	77.7%	–	CC1COCCC1NC(=O)c1cc(Cc2ccc(-c3nccs3)cc2)c2sccc2n1 (stereo not shown) [Compound 370, N-(3-methyltetrahydropyran-4-yl)-7-[(4-thiazol-2-ylphenyl)methyl]thieno[3,2-b]pyridine-5-carboxamide]	–
22.7 nM	63.9%	–	Cc1csc2c(Cc3ccc(-c4ccn(C)n4)cc3)cc(C(=O)N[C@H]3CCOC[C@@H]3O)nc12 [Compound 313]	–
2680 nM	78.2%	–	Cc1cc2nc(C(=O)N[C@H]3CCC[C@@H]3O)cc(Cc3ccc(-n4cccn4)cc3)c2s1 [Compound 236, N-[(1S,2S)-2-hydroxycyclopentyl]-2-methyl-7-[(4-pyrazol-1-ylphenyl)methyl]thieno[3,2-b]pyridine-5-carboxamide]	–
114 nM	86.9%	–	Cn1cc(-c2ccc(Cc3cc(C(=O)N[C@@H]4CCCOC4)nc4ccsc34)cn2)cn1 [Compound 361, 7-[[6-(1-methylpyrazol-4-yl)-3-pyridyl]methyl]-N-[(3R)-tetrahydropyran-3-yl]thieno[3,2-b]pyridine-5-carboxamide]	–
23.4 nM	77.6%	–	Cc1csc2c(Cc3ccc(-n4cccn4)cc3)cc(C(=O)N[C@H]3CCOC[C@@H]3O)nc12 [Compound 269, N-[(3R,4S)-3-hydroxytetrahydropyran-4-yl]-3-methyl-7-[(4-pyrazol-1-ylphenyl)methyl]thieno[3,2-b]pyridine-5-carboxamide]	–
